Experimental data taken from patent US12433872B2, “Treatment of Acanthamoeba or Balamuthia trophozoites and/or cysts” (GEORGIA STATE UNIVERSITY RESEARCH FOUNDATION, INC., priority 2018, dated 2025).
Counter-ions that a name gives are not always drawn. Like-named read-outs stand apart in the source and are kept apart here.

What was measured:
B. mandrillaris = details: previous in vitro testing, cited from earlier work; for effect against B. mandrillaris: in words
[1] = tested on: Acanthamoeba castellanii trophozoites; test: Activity against Acanthamoeba castellanii trophozoites; format: cell-based
A549 cells = test: Toxicity to human A549 cells; format: cell-based
[2] = tested on: Acanthamoeba castellanii (ATCC50370) cysts; test: Encystation drug susceptibility / excystation viability assay, 30 day recovery, A. castellanii cysts; format: cell-based; details: ATCC50370, 720 h, read-out: A. castellanii 30 day MCC
Experimental: (§1) The trophozoites of Acanthamoeba were harvested by mechanical detachment and collected via centrifugation at 4000 rpm at 4° C. for 5 minutes. The trophozoites were washed in 10 mL of Neff's Encystment Media (NEM). NEM composition is 20 mM Tris-HCL [pH 8.8] (2.43 g/L), 100 mM KCL (7.46 g/L), 8 mM MgSO4 (962.96 mg/L), 0.4 mM CaCL2 58.81 mg/L) and 1 mM NaHCO3 (84.01 mg/L) (Neff et al. 1964). All reagents were bought from Sigma Aldrich. Centrifugation of the trophozoites was repeated to ensure any residual growth medium was removed. The pellet was resuspended in a final volume of 15 mL of NEM, cultured in 75 cm^2 corning tissue culture flasks and incubated vertically in a thermal shaker, shaken at 100 rpm at 37° C. for 72 hours to produce fully matured cysts. NEM was supplemented with 250 μg of penicillin/streptomycin. Fresh cysts were produced each time for any experimentation.
(§2) At 72 hours the cysts were harvested using a cell scraper and collected via centrifugation at 4000 rpm at 25° C. for 10 minutes. The cells were washed twice in 10 mL of HyClone™ water, Molecular Biology Grade, and centrifugation was repeated to ensure the removal of any residual NEM. The cell suspension was washed with 0.5% sodium dodecyl sulphate (SDS) to remove any remaining trophozoites and immature cysts. The fully mature cysts were further washed twice with 10 mL of HyClone™ water and 1% NEM, centrifugation was repeated to remove any residue of SDS. The concentration of mature cysts was determined using a haemocytometer and adjusted to 1×10^4 cysts/mL in NEM.
(§3) All test compounds were prepared as 5 mg/mL stock solutions in dimethylsulfoxide (DMSO). All compounds were diluted in NEM, serially diluted in 2-fold dilutions 6 or 11 times, yielding a screening concentration range of 1.56 μg/mL to 50 μg/mL or 48 ng/mL to 50 μg/mL with a final highest screening concentration of 1% DMSO.
(§4) Based on this, a strain specific test period and also a 30 day non-specific recovery time were considered. For the 30 day recovery period, the media was changed 5 times to ensure the contents of wells dis not evaporate and have an effect within the results of the assay.
(§5) 90 μL of 1×10^4 Cysts/ml and 10 μL of experimental compounds from the screening plates were produced according to the protocols above and combined into a Corning clear 96 well treated tissue culture plate. Control wells include cysts in non-drug treated, 1% DMSO, NEM (to be used for negative growth control), NEM Blank, PG blank and cysts in non-drug treated, 1% DMSO, PG (to excyst cells and to be used for positive growth control). The total well volume for all wells was 100 μL. The drug exposed plates were screened at 27° C. for 6 or 24 hours only. At the exposure time point the plates were centrifuged at 4000 rpm at 25° C. for 10 minutes and washed twice with phosphate-buffered saline (PBS) to remove any residual experimental compound.
(§6) Once the plate(s) underwent the Encystation drug susceptibility process, all wells except the negative growth control and NEM blank wells received PG growth medium. All plates were left to recover at 27° C. for the strain specific time period of 5, 9 or 11 days depending on the species of Acanthamoeba. At each of the strain specific time points the plates were removed from incubation and microscopically analysed (qualitatively) for the excystation process for the emergence of excysted viable trophozoites or residual cysts. The presence of excysted trophozoites indicated viable amoebae (non-cystistatic or cysticidal—no effect) and the absence of excystation was considered as cystistatic/cysticidal effects.

[3] = tested on: Acanthamoeba healyi cysts; test: Encystation drug susceptibility / excystation viability assay, 30 day recovery, A. healyi cysts; format: cell-based; details: 720 h, read-out: A. healyi 30 day MCC
Experimental: as §1, §2, §3, §4, §5, §6

[4] = tested on: Acanthamoeba culbertsoni (ATCC30171) cysts; test: Encystation drug susceptibility / excystation viability assay, 30 day recovery, A. culbertsoni cysts; format: cell-based; details: ATCC30171, 720 h, read-out: A. culbertsoni 30 day MCC
Experimental: as §1, §2, §3, §4, §5, §6

Acanthamoeba cysts = test: 30 day cysticidal studies, species not given; format: cell-based; details: for cysticidal activity over 30 day period: in words; for selectivity index (SI): text b496, A549 IC50 versus 30 day MCC
Experimental: As cells were removed during the 5× media changes for the 30 day time point at concentrations of drugs that allowed excystation, only qualitative, microscopic analysis was performed.

[5] = tested on: Balamuthia mandrillaris trophozoites; test: Activity against Balamuthia mandrillaris trophozoites; format: cell-based; details: Balamuthia mandrillaris, read-out: Balamuthia mandrillaris IC50
Experimental: Balamuthia mandrillaris trophozoites were thawed and grown in 10 ml of BM-3 medium. […] After autoclaving, complete BM-3 media was produced by the addition of 10% fetal bovine serum and 125 μg of penicillin/streptomycin antibiotics. The table describes all of the compounds and the activity against Balamuthia trophozoites compared to the activity for select Acanthamoeba trophozoites shown in Table 5.

[6] = read-out: A. cactellanii Trophozoite IC50
[7] = human A549 cells, read-out: A549 cell IC50
[8] = minimum cysticidal concentration, no recovery up to 30 days
[9] = trophozoites, n = 2, Table 6, read-out: Acanthamoeba castellanii IC50

Row | Structure (SMILES) | IC50 (A549 cells; [7]) [nM] | MCC [2, 8] [µM] | MCC [3, 8] [µM] | MCC [4, 8] [µM] | IC50 [1, 9] [nM] | IC50 ([5]; trophozoites, n = 2) [nM] | further results
1 | C[C@@H]1[C@H](O)[C@@H](C)/C=C/C=C/C=C/C=C/C=C/C=C/C=C/[C@H](O[C@@H]2O[C@H](C)[C@@H](O)[C@H](N)[C@@H]2O)C[C@@H]2O[C@](O)(C[C@@H](O)C[C@@H](O)[C@H](O)CC[C@@H](O)C[C@@H](O)CC(=O)O[C@H]1C)C[C@H](O)[C@H]2C(=O)O [amphotericin B] | – | – | – | – | – | – | effect against B. mandrillaris (B. mandrillaris): marginal effects
2 | CCCCC(CC)CNC(=N)NC(=N)NCCCCCCNC(=N)NC(=N)NCC(CC)CCCC (centres unmarked) [Alexidine HCL, alexidine, reference compound] | 1580 | 5.37 | 5.37 | 5.37 | – | – | IC50 [1, 6]: 1710 nM; cysticidal activity over 30 day period (Acanthamoeba cysts): shows cysticidal activity; selectivity index (SI) (Acanthamoeba cysts): 0.29
3 | N=C(NCCCCCCNC(=N)NC(=N)Nc1ccc(Cl)cc1)NC(=N)Nc1ccc(Cl)cc1 [Chlorhexidine, chlorhexidine, reference compound] | 3080 | 100 | 100 | 100 | – | – | IC50 [1, 6]: 1010 nM; cysticidal activity over 30 day period (Acanthamoeba cysts): little cysticidal activity; selectivity index (SI) (Acanthamoeba cysts): 0.03
4 | N=C(N)c1ccc(OCCCCCOc2ccc(C(=N)N)cc2)cc1 [pentamidine] | – | – | – | – | – | – | concentration at which most effective drug against B. mandrillaris (B. mandrillaris; same value in μM): 29.38 µM; concentration at which most effective drug against B. mandrillaris (B. mandrillaris): 10 µg/mL
5 | CC[C@H]1OC(=O)[C@H](C)[C@@H](O[C@H]2C[C@@](C)(OC)[C@@H](O)[C@H](C)O2)[C@H](C)[C@@H](O[C@@H]2O[C@H](C)C[C@H](N(C)C)[C@H]2O)[C@](C)(OC)C[C@@H](C)C(=O)[C@H](C)[C@@H](O)[C@]1(C)O [clarithromycin] | – | – | – | – | – | – | effect against B. mandrillaris (B. mandrillaris): no effect
6 | CC[C@H]1OC(=O)[C@H](C)[C@@H](O[C@H]2C[C@@](C)(OC)[C@@H](O)[C@H](C)O2)[C@H](C)[C@@H](O[C@@H]2O[C@H](C)C[C@H](N(C)C)[C@H]2O)[C@](C)(O)C[C@@H](C)CN(C)[C@H](C)[C@@H](O)[C@]1(C)O [azithromycin] | – | – | – | – | – | – | effect against B. mandrillaris (B. mandrillaris): no effect
7 | CC(C)NC(=N)c1ccc2nc(-c3ccc(Oc4ccc(-c5nc6ccc(C(=N)NC(C)C)cc6[nH]5)cc4Cl)c(Cl)c3)[nH]c2c1 [P, 2,2′-(Oxybis(3-chloro-4,1-phenylene))bis(N-isopropyl-1H-benzo[d]imidazole-6-carboximidamide)] | 4910 | 18 | 9.99 | 20 | 810 | 180 | –
8 | CCC(CC)NC(=N)c1ccc2nc(-c3ccc(Oc4ccc(-c5nc6ccc(C(=N)NC(CC)CC)cc6[nH]5)cc4)cc3)[nH]c2c1 [Compound T] | 31400 | 11.4 | 7.61 | 5.71 | 1130 | 140 | –
9 | CC(C)NC(=N)c1ccc2nc(-c3ccc(Oc4ccc(-c5nc6ccc(C(=N)NC(C)C)cc6[nH]5)c(Br)c4)c(F)c3)[nH]c2c1 [Q, 2-(2-Bromo-4-(2-fluoro-4-(6-(N-isopropylcarbamimidoyl)-1H-benzo[d]imidazol-2-yl)phenoxy)phenyl)-N-isopropyl-1H-benzo[d]imidazole-6-carboximidamide] | 3510 | 3.6 | 3.6 | 2.7 | 410 | 100 | –
10 | CC(C)NC(=N)c1ccc2nc(-c3cc(F)c(Oc4ccc(-c5nc6ccc(C(=N)NC(C)C)cc6[nH]5)c(F)c4)c(F)c3)[nH]c2c1 [Compound C, 2-(3,5-Difluoro-4-(3-fluoro-4-(6-(N-isopropylcarbamimidoyl)-1H-benzo[d]imidazol-2-yl)phenoxy)phenyl)-N-isopropyl-1H-benzo[d]imidazole-6-carboximidamide] | – | – | – | – | – | – | IC50 [1, 6]: 1220 nM; IC50 ([1]; read-out: Acanthamoeba castellanii IC50): 1220 nM; IC50 (A549 cells; Homo sapiens, A549, read-out: A549 cell IC50): 34800 nM; MCC [2]: 23.1 µM; MCC [3]: 23.1 µM; MCC [4]: 11.6 µM; IC50 [5]: 490 nM
11 | CC(C)NC(=N)c1ccc2nc(-c3ccc(Oc4ccc(-c5nc6ccc(C(=N)NC(C)C)cc6[nH]5)c(Br)c4)c(Br)c3)[nH]c2c1 [Compound R, 2-(2-Bromo-4-(2-bromo-4-(6-(N-isopropylcarbamimidoyl)-1H-benzo[d]imidazol-2-yl)phenoxy)phenyl)-N-isopropyl-1H-benzo[d]imidazole-6-carboximidamide] | 4180 | 2.66 | 3.56 | 2.66 | 550 | 200 | –
